Assay results as given in patent US12043601B2, “N-substituted-1H-1,2,4-triazole-3-carboxamides, analogues thereof, and methods of treatment using same” (THE REGENTS OF THE UNIVERSITY OF COLORADO, priority 2018, dated 2024).
Values after ≈ are worked out from the molar mass of the structure shown.

How the values were obtained:
[1] = target: T1, DksA (Salmonella typhimurium, UniProt P0A1G5); test: DksA-mediated repression of rpsM in vitro transcription (IVT, qRT-PCR); assay type: biochemical
Procedure: (§1) To measure the potency of a compound in inhibition of DksA biological function, rpsMtranscripts in vitro was determined by non-radioactive in vitro transcription reactions with qPCR analysis with divergent compounds. Briefly, 5 nM pTIM-rpsMplasmid was mixed with […] of compounds in 10 μl reaction buffer (40 mM HEPES [pH 7.4], 2 mM MgCl2, 60 mM potassium glutamate, 0.05% NP-40, 200 μM ATP, 200 μM GTP, 200 μM CTP, 200 μM UTP, and 5 nM E. coli RNA polymerase holoenzyme (NEB, Ipswich, MA) with 5 μM DksA. The in vitro transcription was carried out at 37° C. for 10 min, and then terminated at 70° C. for 10 min. To remove template DNA after treated with DNaseI, DNA-free DNA Removal kit (ThermoFisher) was used according to manufacturer's direction. The resulting materials were used as templates to generate cDNA with 100 U MMLV reverse transcriptase (Promega), 0.45 μM gene specific primer, and 20 U RNase inhibitor (Promega). The amount of cDNA synthesized for 1 h at 42° C. was quantified by real-time PCR (qRT-PCR). The copy number of specific transcripts was calculated to the standard curve generated with known gene copy concentrations. The IC50 is the concentration at which the curve passes through the 50% inhibition level. Standard deviation was calculated from 3 independent experiments.
The compounds obtained in this screen were further analyzed for binding to the acidic pocket at the tip of DksA coiled-coil domain using the computer search program Dock. The analysis identified over 400 compounds. A panel of 40 compounds was selected from the top hits based on free energy binding scores. These compounds were investigated using the computer modeling program O. Two additional criteria were applied in order to narrow down the list of candidates: First, the compounds needed to fit deep into the pocket without any clashes; and second, the compounds bound to DksA should have minimal exposed moieties. The compounds selected were further refined according to energy minimization as calculated by the CNS program. 23 compounds were obtained from MolPort and they were tested for their ability to interfere with DksA in a high throughput screen that combined in vitro transcription with highly specific and quantitative qRT-PCR. Five of these compounds, including N-(3,4-dimethoxyphenyl)-1H-1,2,4-triazole-3-carboxamide (1), prevented DksA-mediated repression of rpsM in vitro transcription to some degree. […] Without intending to be limited to any particular theory, the effect that 1 has on DksA-dependent rpsM or hisG gene transcription is potentially due to differences in promoter activity.
(§2) The compounds were initially tested at 0.1 μM and 1 μM using as a target the promoter of the livJ gene that encodes a transporter of branch-chain amino acids (Table 4).

[2] = target: T1, DksA; test: DksA-dependent livJ in vitro transcription; assay type: biochemical; conditions: livJ promoter; for IVT: concentration showing activity
Procedure: as §1, §2

[3] = tested on: Salmonella strain 14028s; test: Minimum inhibitory concentration in EG minimal media; assay type: cell-based, Salmonella Typhimurium; conditions: 18 h; for Growth in EG at concentration tested 1 μg/ml / Growth in EG at concentration tested 2 μg/ml / Growth in EG at concentration tested 4 μg/ml / Growth in EG at concentration tested 8 μg/ml / Growth in EG at concentration tested 16 μg/ml / Growth in EG at concentration tested 32 μg/ml: EG minimal media, 37° C.; for MIC: Salmonella, 14028S
Procedure: DksA controls transcription of metabolic and virulence genes, allowing bacteria to both grow in minimum media and cause disease. Inhibition of bacterial growth in EG minimum media was used as an easy and reliable proxy of the DksA-dependent regulation of metabolism.
In a non-limiting example, wild-type Salmonella strain 14028s was grown overnight (18.5 h), and then diluted in EG minimal media to a density of about 10^5 CFU/mL. […] Each test tube was incubated at 37° C. with shaking for 18 h and bacterial growth was evaluated. The MIC value was determined as the lowest concentration of compound that inhibited growth.

[4] = Compound solubility; assay type: physicochemical; conditions: for Compound Solubility, 1 μM: solvent at 1 μM; for Compound Solubility, 10 μM: solvent at 10 μM; for Compound Solubility, 100 μM: solvent at 100 μM; for Compound Solubility, 1 mM: solvent at 1 mM; for Compound Solubility, 10 mM: solvent at 10 mM; for Compound Solubility, 16 mg/ml: solvent at 16 mg/ml

T1 sequence (P0A1G5 whole entry): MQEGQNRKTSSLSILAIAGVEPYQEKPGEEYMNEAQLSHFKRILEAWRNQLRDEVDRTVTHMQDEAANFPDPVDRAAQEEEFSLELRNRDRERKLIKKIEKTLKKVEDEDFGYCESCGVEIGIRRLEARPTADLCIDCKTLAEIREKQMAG

SMILES | IC50 [1] | In vitro transcription assay result, 0.1 μM [2] | In vitro transcription assay result, 1 μM [2] | IVT [2] | Growth in EG at concentration tested 1 μg/ml [3] | Growth in EG at concentration tested 2 μg/ml [3] | Growth in EG at concentration tested 4 μg/ml [3] | MIC [3] | Compound Solubility, 1 μM [4] | Compound Solubility, 10 μM [4] | Compound Solubility, 100 μM [4] | Compound Solubility, 1 mM [4] | Compound Solubility, 10 mM [4] | Compound Solubility, 16 mg/ml [4] | Growth in EG at concentration tested 8 μg/ml [3] | Growth in EG at concentration tested 16 μg/ml [3] | Growth in EG at concentration tested 32 μg/ml [3]
CCCCNC(=O)c1nc[nH]n1 [Compound 12, N-butyl-1H-1,2,4-triazole-3-carboxamide] | 73 nM | no induction | no induction | 0.1 µM | + | + | + | 8 µg/mL (≈ 47.6 µM) | water | water | water | water | water | DMSO | – | – | –
O=C(Nc1cc(Cl)cc(Cl)c1)c1nc[nH]n1 [Compound 14, N-(3,5-dichlorophenyl)-1H-1,2,4-triazole-3-carboxamide] | 71 nM | no induction | no induction | 0.1 µM | + | + | + | 8 µg/mL (≈ 31.1 µM) | water | water | water | DMSO | DMSO | DMSO | – | – | –
O=C(NCCCc1ccccc1)c1nc[nH]n1 [Compound 15, N-(3-phenylpropyl)-1H-1,2,4-triazole-3-carboxamide] | 51 nM | no induction | no induction | 0.1 µM | + | + | + | 16 µg/mL (≈ 69.5 µM) | water | water | water | water | water | DMSO | + | – | –
O=C(NCCCCc1ccccc1)c1nc[nH]n1 [Compound 16, N-(4-phenylbutyl)-1H-1,2,4-triazole-3-carboxamide] | 91 nM | no induction | good repression | 0.1 µM | + | + | + | 16 µg/mL (≈ 65.5 µM) | water | water | water | water | DMSO | DMSO | – | – | –
C[C@@H](NC(=O)c1nc[nH]n1)c1ccccc1 [Compound 17, (R)-N-(1-phenylethyl)-1H-1,2,4-triazole-3-carboxamide] | – | no induction | no induction | 0.1 µM | + | + | + | – | water | water | water | water | water | DMSO | + | + | +
C[C@H](NC(=O)c1nc[nH]n1)c1ccccc1 [Compound 18, (S)-N-(1-phenylethyl)-1H-1,2,4-triazole-3-carboxamide] | – | no induction | no induction | 0.1 µM | + | + | + | – | water | water | water | water | water | DMSO | + | + | +
O=C(NCCc1c[nH]c2ccccc12)c1nc[nH]n1 [Compound 19, N-(2-(1H-indol-3-yl)ethyl)-1H-1,2,4-triazole-3-carboxamide] | 75 nM | no induction | no induction | 0.1 µM | + | + | + | 16 µg/mL (≈ 62.7 µM) | water | water | water | water | water | DMSO | + | – | –
O=C(NCCc1ccccc1)c1nc[nH]n1 [Compound 20, N-phenethyl-1H-1,2,4-triazole-3-carboxamide] | 90 nM | no induction | no induction | 0.1 µM | + | + | + | 8 µg/mL (≈ 37 µM) | water | water | water | water | water | DMSO | – | – | –
COc1ccc([C@@H](C)NC(=O)c2nc[nH]n2)cc1 [Compound 22, (R)-N-(1-(4-methoxyphenyl)ethyl)-1H-1,2,4-triazole-3-carboxamide] | – | no induction | no induction | 0.1 µM | + | + | + | – | water | water | water | water | water | DMSO | + | + | +
